Results published in patent US20260132172A1, “IN VITRO BIOSYNTHESIS OF DIVERSE PYRIDINE-BASED MACROCYCLIC PEPTIDES” (The Brd. of Trustees of the Univ. of Illinois, priority 2022, published 2026).

Key:
[1] = molecular target: MBP-MroB (Micromonospora rosaria MroB with maltose-binding protein fused to the N-terminus) (Micromonospora rosaria) [MBP: P0AEX9]; experiment: competition fluorescence polarization against fluorescein-Δ12MroA1
[2] = molecular target: MBP-MroD (Micromonospora rosaria MroD with maltose-binding protein fused to the N-terminus) (Micromonospora rosaria) [MBP: P0AEX9]; experiment: as above
MroB/C = MroB/C dehydration (Dha formation) of MroA precursor peptide variants, MALDI-TOF-MS / LC-MS/MS; assay type: biochemical, Micromonospora rosaria; conditions: MroA2 multi-site variants, in vitro translated, MALDI-TOF-MS
Procedure: In a 0.65 mL protein low-binding Eppendorf tube placed on ice. 0.75 μL of purified mroA variant template DNA was mixed with 0.75 μL of Solution B and 1 μL of Solution A of PURExpress In vitro Protein Synthesis Kit (E6800L) purchased from NEB (total volume of reaction is 2.5 μL). The translation reactions were performed at 37° C. for 1 h on an aluminum block.
For a full MroBCD substrate scope investigation, a total translation volume for each variant of 7.5 μL was performed. 1.5 μL of 90 mM iodoacetamide (IAA) was added to quench dithiothreitol (DTT) in the translation reaction mixture, a thiol-based nucleophile that can react with electrophilic dehydroalanines generated from MroBC-catalyzed dehydration assays. The translation product was split into two parts with these corresponding volumes: 3 μL and 6 μL. In the 6 μL part. 10.2 μL of the enzyme mix containing enzymes and cofactors was added along with 1.8 μL 90 mM ATP (pH 7.5), which was used to initiate the reaction. The enzyme mix was made by adding these components in the following order: HEPES pH 7.5, MgCl2, glutamate, T. bispora tRNA^Glu (CUC), thermostable inorganic pyrophosphatase (TIPP), TEV (L56V/S135G/S219V) (w/w ratio with a total amount of MBP-tagged protein=1:10), MBP-MroB, MBP-MroC, and T. bispora GluRS. The enzyme mix was incubated 25 min at room temperature before adding to the translation product to facilitate in situ TEV-catalyzed cleavage of MBP from MBP-MroB and MBP-MroC. The enzymatic reaction proceeded for 1 h at room temperature. Overall, the concentration of components in the 18 μL reaction mix is as follows: 50 mM HEPES pH 7.5, 5 mM MgCl2. L-glutamate 1 mM, 3 μM T. bispora tRNA^Glu, 1 μM T. bispora GluRS, 2 μM MBP-MroB, 2 μM MBP-MroC, […], 0.027 U/μL TIPP, and 5 mM IAA. In addition, the 3 μL part was incubated with the same buffer lacking enzymes and tRNA as a translation control.
The reactions were performed similarly as described above, with 10 μM substrate concentration and without IAA. The total volume of each reaction is 100 μL.
Enzymatic assays were desalted using solid-phase extraction prior to LC-ESI-MS/MS analysis. Specifically, except for the thiazol(in)es-containing pyritide (which utilize 8 mg Pierce C18 Spin Column), the samples were applied to Toptip C18 (10-200 μL, Glygen Corp) wetted with 50 μL of 80% acetonitrile (0.1% formic acid) and equilibrate with 150 μL of 0.1% formic acid following the manufacturer instructions. The C18 columns (tips) are then washed with 150 μL of 0.1% formic acid and eluted using 100 μL 80% acetonitrile (0.1% formic acid). The samples were then dried utilizing lyophilization and redissolved in 25% acetonitrile (80 μL for enzymatic assays of in vitro-translated substrates and 200 μL for enzymatic assays of purified substrates). Then 20 μL of each sample was injected into an Agilent AdvanceBio Peptide Plus column (2.1×150 mm, 2.7 μm) equipped with an Agilent 6545B Q-TOF interfaced with an Agilent 1290 Infinity II LC system. Mobile phase solvents were composed of H2O, 0.1% formic acid (Solvent A), and acetonitrile 0.1% formic acid (Solvent B). The column compartment was maintained at 35° C. during all experiments. The column was equilibrated with 5 column volumes of starting mobile phase (95% A and 5% B) between injections. The gradient of all LC runs was as follows: 0-2 min: 95% A 5% B, 2-3 min: 70% A 30% B, 3-18 min: 20% A 80% B, 18-20 min: 5% A 95% B. The samples were run to waste for the first 3 min before applying to the mass spectrometer. Mass range was set from 100 to 1700 m/z (except for 412MroA1 W7G: 100-3000 m/z). MS parameters were as follows: gas, 320° C. at 8 L/min: nebulizer, 35 psig: nozzle voltage, 1000 V: sheath gas, 350° C. at 11 L/min: capillary, 3500 V: fragmentor, 125 V: skimmer, 65 V: MS scan rate (10) spectra/s): MS-MS scan rate (5 spectra/s); and isolation width (MS/MS), 1.3 m z. […]

MroD [3] = experiment: MroD [4+2] macrocyclization of didehydrated MroA2 variants, MALDI-TOF-MS; assay type: biochemical, Micromonospora rosaria; set-up: key: +++ indicates enzyme activity roughly equal to wild-type MroA2; ++ indicates modestly reduced enzyme activity; + indicates severely reduced enzyme activity; − indicates no detectable enzyme activity (no macrocycles detected); conditions: MroA2 multi-site variants; qualitatively estimated from leader peptide vs remaining didehydrated intermediate
Procedure: (§1) After incubation, the enzyme reaction (18 μL) was split into two equal parts. One part was treated with MBP-MroD such that the final concentration of MBP-MroD is 3 μM, and the other part was added the same volume but with buffer lacking MBP-MroD (50 mM HEPES, 300 mM NaCl, 2.5% glycerol, 0.5 mM TCEP). The reaction further proceeded for 1.5 h at room temperature. All reaction mixture was then desalted with solid-phase extraction using Ziptip with 0.6 μL C18 resin (EMD Millipore) and crystallized on an MTP384 steel target plate using either saturated sinapic acid or 50 mg/mL Super DHB [dissolved in 60% acetonitrile and 0.1% trifluoroacetic acid (TFA)] as the matrix. The crystallized spots were then analyzed using MALDI-TOF-MS (Bruker Ultraflex). The external standard for MALDI-TOF-MS analysis is ProteoMass Peptide and Protein MALDI-MS Calibration Kit (Sigma).

MroD [4] = experiment: as above; assay type: biochemical, Micromonospora rosaria; set-up: key: +++ indicates enzyme activity roughly equal to wild-type MroA2; ++ indicates modestly reduced enzyme activity; + indicates severely reduced enzyme activity; − indicates no detectable enzyme activity (no macrocycles observed); conditions: MroA2 multi-site variants; qualitatively estimated from leader peptide vs remaining didehydrated intermediate
Procedure: as §1

Substance: GlyAla-MroA1 core (peptide)
- IC50 [1]: 27200 nM
- IC50 [2]: 40900 nM

Substance: SGDAMRWRSWLI [Number 53-A8R]
- Dha formation (MroB/C): 2 Dha
- Relative MroD conversion (MroD [3]): −

Substance: SGGYRPHSWLI [Number 38]
- Dha formation (MroB/C): 2 Dha
- Relative MroD conversion (MroD [3]): −

Substance: SGHYKPQASWLI [Number 55]
- Dha formation (MroB/C): 2 Dha
- Relative MroD conversion (MroD [3]): −

Substance: SGHYKPQRSWLI [Number 55-A8R]
- Dha formation (MroB/C): 2 Dha
- Relative MroD conversion (MroD [3]): −

Substance: SGIAKEVQSWLI [Number 47]
- Dha formation (MroB/C): 2 Dha
- Relative MroD conversion (MroD [3]): −

Substance: SGIAKEVRSWLI [Number 47-Q8R]
- Dha formation (MroB/C): 2 Dha
- Relative MroD conversion (MroD [3]): −

Substance: SGKALEFSWLI [Number 29]
- Dha formation (MroB/C): 2 Dha
- Relative MroD conversion (MroD [3]): −

Substance: SGLQHGKRSWLI [Number 52-Y8R]
- Dha formation (MroB/C): 2 Dha
- Relative MroD conversion (MroD [3]): −

Substance: SGLQHGKYSWLI [Number 52]
- Dha formation (MroB/C): 2 Dha
- Relative MroD conversion (MroD [3]): −

Substance: SGPKGSWLI [Number 5]
- Relative MroD conversion (MroD [4]): +++
- Dha formation (MroB/C): 2 Dha

Substance: SGPKRWGHSWLI [Number 51]
- Relative MroD conversion (MroD [4]): +
- Dha formation (MroB/C): 2 Dha

Substance: SGPMHYSWLI [Number 21]
- Relative MroD conversion (MroD [4]): +++
- Dha formation (MroB/C): 2 Dha

Substance: SGPRANYSWLI [Number 30]
- Relative MroD conversion (MroD [4]): ++
- Dha formation (MroB/C): 2 Dha

Substance: SGQDVANRSWLI [Number 43]
- Relative MroD conversion (MroD [4]): +++
- Dha formation (MroB/C): 2 Dha

Substance: SGQGRNRSWLI [Number 24-V7R]
- Relative MroD conversion (MroD [4]): +++
- Dha formation (MroB/C): 2 Dha

Substance: SGQGRNVSWLI [Number 24]
- Relative MroD conversion (MroD [4]): +
- Dha formation (MroB/C): 2 Dha

Substance: SGQPQRLGSWLI [Number 42]
- Relative MroD conversion (MroD [4]): +++
- Dha formation (MroB/C): 2 Dha

Substance: SGQYKFRSWLI [Number 48]
- Relative MroD conversion (MroD [4]): +++
- Dha formation (MroB/C): 2 Dha

Substance: SGRANSWLI [Number 2]
- Dha formation (MroB/C): 2 Dha
- Relative MroD conversion (MroD [3]): −

Substance: SGREFANSWLI [Number 35]
- Relative MroD conversion (MroD [4]): +
- Dha formation (MroB/C): 2 Dha

Substance: SGREFARSWLI [Number 35-N7R]
- Relative MroD conversion (MroD [4]): +++
- Dha formation (MroB/C): 2 Dha

Substance: SGRGYALSWLI [Number 25]
- Relative MroD conversion (MroD [4]): ++
- Dha formation (MroB/C): 2 Dha

Substance: SGRVALEASWLI [Number 37]
- Relative MroD conversion (MroD [4]): +
- Dha formation (MroB/C): 2 Dha

Substance: SGRYAGRSWLI [Number 39-W7R]
- Relative MroD conversion (MroD [4]): +++
- Dha formation (MroB/C): 2 Dha

Substance: SGRYAGWSWLI [Number 39]
- Dha formation (MroB/C): 2 Dha
- Relative MroD conversion (MroD [3]): −

Substance: SGRYHSWLI [Number 12]
- Relative MroD conversion (MroD [4]): +++
- Dha formation (MroB/C): 2 Dha

Substance: SGVKADSWLI [Number 4]
- Dha formation (MroB/C): 2 Dha
- Relative MroD conversion (MroD [3]): −

Substance: SGVKAWSWLI [Number 14]
- Relative MroD conversion (MroD [4]): +++
- Dha formation (MroB/C): 2 Dha

Substance: SGVKFSWLI [Number 3]
- Relative MroD conversion (MroD [4]): +
- Dha formation (MroB/C): 2 Dha

Substance: SGYANRAGSWLI [Number 33]
- Relative MroD conversion (MroD [4]): +++
- Dha formation (MroB/C): 2 Dha

Substance: SGYDRQRSWLI [Number 56-Y7R]
- Relative MroD conversion (MroD [4]): +++
- Dha formation (MroB/C): 2 Dha

Substance: SGYDRQYSWLI [Number 56]
- Dha formation (MroB/C): 2 Dha
- Relative MroD conversion (MroD [3]): −

Substance: SGYHFHNRSWLI [Number 54-V8R]
- Dha formation (MroB/C): 2 Dha
- Relative MroD conversion (MroD [3]): −

Substance: SGYHFHNVSWLI [Number 54]
- Dha formation (MroB/C): 2 Dha
- Relative MroD conversion (MroD [3]): −

Substance: SGYRRRAGSWLI [Number 50]
- Relative MroD conversion (MroD [4]): +++
- Dha formation (MroB/C): 2 Dha

Substance: Δ12MroA1 (variant of MroA1 in which the first 12 residues were deleted) (peptide)
- IC50 [1]: 680 nM
- IC50 [2]: 900 nM

Substance: Δ12MroA1 Leader (peptide)
- IC50 [1]: 19400 nM
- IC50 [2]: 16000 nM

Substance: Δ12MroA1-COOMe (peptide)
- IC50 [1]: 4200 nM
- fold loss in binding affinity (against Δ12MroA1) [1]: 8 fold
- IC50 [2]: 400 nM

Substance: Δ12MroA1-I9G (peptide)
- IC50 [1]: 2000 nM
- IC50 [2]: 910 nM

Substance: Δ12MroA1-V8G (peptide)
- IC50 [1]: 1100 nM
- IC50 [2]: 1700 nM

Substance: Δ12MroA1-W7G (peptide)
- IC50 [1]: 8100 nM
- IC50 [2]: 2400 nM
